One data set has as its system GST. The data set can be described thus: Glutathione S-transferase (GST) assay in treated cells. The data set is classed as cell-based, rat. Conditions: for enhancement of GST activity: 48 h. The protocol:
FIG. 4. Effect of DBZIM and TDBZIM on GPx, CAT, SOD and GST. DBZIM affected (a) GPx activity and (c) CAT activity in a dosage-dependent manner. TDBZIM suppressed (b) GPx activity and (d) CAT activity. (e) DBZIM and (f) TDBZIM had little effect on SOD activity. (g) DBZIM induced GST activity. HSC T6 cells were treated with compounds of various concentrations for 48 h, and homogenized by sonication (60% frequency for 30 s) in PBS (pH 7.4, 1 mM of EDTA) for GPx, GST and CAT assays, or in 20 mM of HEPES buffer containing 1 mM of EGTA, 210 mM of mannitol and 70 mM of sucrose (pH 7.2) for SOD assay. Enzyme activity was normalized against total protein. DBZIM was dissolved in DMSO, and TDBZIM was dissolved in H2O. The data were presented as mean and SEM, N=6, *^aP<0.05, *^bP<0.01, *^cP<0.005, and *^dP<0.0005, when compared to the vehicle control.
The activity of phase II anti-oxidant enzyme, GST, was assayed using a kit from Cayman Chemical. Protein samples were harvested in PBS buffer containing 1 mM of EDTA, and the protein concentration was determined by BCA assay. Total GST (cytosolic and microsomal) activity was assayed by measuring the conjugation of 1-chloro-2,4-dinitobenzene (CDNB) with reduced GSH, and monitored by an increase in absorbance at 340 nm. GST activity was expressed as nmol/min/mg protein.

A further data set deals with HLE cells. In words: Cell based caspase 3/7 and LDH assays, HLE. More on the design: species or system human. Conditions: 6 hr. How it is done: (§1) FIG. 22. […] HLE or HepG2 cells were incubated with DBZIM of various concentrations for 6 hr, and assayed for caspase 3/7 activity and LDH releasing (expressed as % toxicity). DBZIM induced apoptosis as characterized by annexin V staining using flow cytometer in HLE (E) and HepG2 (F). Scatter plot and histogram gave the representative information on the cell population distribution while bar graphs quantified the percentage of apoptotic cells from the histogram. HLE and HepG2 cells were treated by DBZIM of various concentrations for 24 hr before harvesting for annexin V staining and flow cytometric analysis.
Capspase 3/7 activity and lactate dehydrogenase (LDH) release were measured by Fluorometric assays (Promega Corp., WI, USA). The HCC cells were cultured in 96-well plate and treated with DBZIM of various concentrations for 6 hr before assays. For caspase 3/7 assay, medium was removed and substrate buffer was added to lyse the cell and react with caspase 3/7 to give rise to fluorescence signal which was read at Ex=485 nm and Em=530 nm on a Tecan Safire II plate reader after 1 hr incubation. The caspase 3/7 activity of sample cells with the compound treatment was expressed as relative fold change after normalizing to the control cells. The LDH assay (indicative of membrane integrity) was performed using a Kit from Promega Corp according to manufactor's instructions.

In a further data set the test system is HepG2 cells. In words: Annexin V staining and flow cytometry, HepG2. The class given is cell-based, human. As to conditions: HepG2, 24 hr; TRAIL 100 ng/ml. The protocol:
as §1
HLE and HepG2 cells were treated with various concentrations of DBZIM or TRAIL (100 ng/ml) for 24 hr, harvested and labeled with Annexin V-FITC (BioVision, CA, USA). The labeled cells were analysed by flow cytometry FACSCalibur ([…], NJ, USA) and CellQuest software. Cells showing green staining in the plasma membrane were considered as apoptotic cells.
Background: A flow cytometer gives signals particle by particle.

The next data set concerns AP-1. The data set can be described thus: Western blot of AP-1 complex members in nuclear extracts. The data set is classed as cell-based, human. As to conditions: 24 hr. How it is done: FIG. 28. DBZIM induced up-regulation of AP-1 expression in HepG2 cells. HepG2 cells were treated with DBZIM for 24 hr. Cytoplasmic and nuclear proteins were fractionated using a kit from Pierce. 15 μg of nuclear proteins were resolved in 4-12% gradient PAGE-SDS gel. The target proteins were recognized by their respective antibodies, and visualized by the ECL method. The membrane was stripped and re-probed for Tata binding protein TBP as loading control.
Protein extracts were prepared by lysing cell pellet in RIPA buffer (Pierce, Ill., USA) for total protein extract, or in NE-PER reagent from Pierce (Pierce, Ill., USA) for nuclear and cytoplasmic fractions, or in a Kit from BioVision (CA, USA) for mitochondria and cytosol fractions. Protein content was quantified using BCA Kit (Pierce, Ill., USA). […] The membrane was then probed with primary antibodies against Bcl-XL, Bak, Bcl-2α, Bax (Lab Vision Corp., CA, USA), survivin, xIAP, cIAP (R&D systems Inc., MN, USA), c-Jun, c-Fos, JunB, JunD, Fra-1, Fra-2 (Santa Cruz Biotechnology, CA, USA) respectively, and detected by horseradish peroxidase-conjugated secondary antibody (Santa Cruz Biotechnology, CA, USA). Protein bands were recorded on X-ray film by reacting with ECL chemiluminescence reagents (Amersham Biosciences, NJ, USA). […]
A general note: Immunoblotting shows a protein as a band on a membrane.

The test system of the next data set is IMR90. In words: Cytotoxicity on normal (non-cancerous) lung cells. The data set is classed as cell-based. The protocol: The IC50 value (determined at day 3) was 50 μM for H1299 (lung cancer); 50 μM for MCF-7 (breast cancer), and 40 μM for AGS gastric cancer at day 3 (Table 3).
The next data set deals with U87 MG. The data set can be described thus: Proliferation assay (MTS), glioma U87 MG. The data set is classed as cell-based. Conditions: Homo sapiens, U-87 MG, 48 h, determined at day 2. How it is done:
FIG. 30. DBZIM inhibited cell proliferation in glioma cell line C6 (A) and U87 MG (C) and induced caspase 3/7 activity in C6 (B) and U87 MG (D). C6 or U87 cells were incubated with DBZIM of various concentrations for 48 hr for proliferation assay and 6 hr for caspase 3/7 activation assay. Proliferation was measured using MTS kit from Promega and expressed as relative cell proliferation with control group was normalized to 1. Caspase 3/7 activity was quantified using a kit from Promega and also expressed as relative caspase 3/7 activity of treated groups over control group.
Proliferation of Glioma cell lines: U87 MG and C6 under the treatment of DBZIM was examined using 3-(4,5-dimethylthiazol-2-yl)-5-(3-carboxymethoxyphenyl)-2-(4-sulfophenyl)-2H-tetrazolium (MTS) based proliferation assay kit (Promega, Wis., USA). MTS reagent was added to the control and treated cells (after 48 hr) directly and the absorbance signal was read at 490 nm using a Tecan Safire II plate reader.

For data set [1] the following is noted: dosage of 30 mg/kg (Lin et al. 2004); cited from earlier work.

What is called IC50 is the midpoint of a concentration-inhibition curve. Low readings indicate greater potency in that assay, high ones weaker potency in that assay. As for `[Br-].c1ccc(Cn2cc[n+](Cc3ccccc3)c2)cc1` [DBZIM, 1,3-bisbenzylimidazolium bromide], the “enhancement of GST activity” value in the data set with GST (100 μM) was 22%. The “enhancement of GST activity” value with GST (300 μM) was 32%. Further, in the data set on HLE cells, the LDH release result is given as “least affected” and the “caspase 3/7 activity” value is “enhanced”. The “apoptosis (annexin V staining)” value with HepG2 cells is on record as “dose-dependently induced apoptosis”. In the data set with AP-1, the “AP-1 complex members (C-Jun, Jun B, Jun D, Fra-1; not Fra-2)” value is listed as “significantly induced”. Further, the “cytotoxicity on normal lung cells” value in the data set with IMR90 is listed as “much less cytotoxicity”. In the data set with U87 MG, this compound gave an IC50 of 2100 µM.

For “(−)-Epigallocatechin gallate [EGCG, reference compound]”, the “effect on GST activity (references)” value in the data set on GST (EGCG, NAC) is “did not have much affect”. Besides, in data set [1], the “half life in rat blood” value is around 1.2 h.

(Values after US9072729B2, “Method for treating fibrosis and cancer with imidazolium and imidazolinium compounds” (Agency for Science, Technology and Research, priority 2008, dated 2015).)
